Measurements reported in patent US20180200257A1, “METHODS FOR THE TREATMENT OF INFLAMMATORY DISORDERS” (Galapagos NV, priority 2015, published 2018).

System: Subjects With Active Crohn's Disease With Evidence of Mucosal Ulceration
Test: Study 3 - Fecal calprotectin levels
Type: in vivo, human
Conditions: 200 mg; week 10; LOCF
Source text: Double-Blind, Randomized, Placebo-Controlled, Multi-Centre Study to Investigate the Efficacy and Safety of Compound 1 in Subjects With Active Crohn's Disease With Evidence of Mucosal Ulceration.
This is a double-blind, randomized, placebo-controlled, multi-centre Phase 2 study to investigate the efficacy and safety of Compound 1 administered once daily for the treatment of active CD with evidence of mucosal ulceration. The pharmacokinetics (including a PK substudy) and pharmacodynamics of Compound 1 and metabolite in CD will also be characterised.
A total of 180 eligible subjects will be randomized to receive Compound 1 or placebo in addition to their stable background treatment (eg, corticosteroids, aminosalicylates, or CD-related antibiotics). The study will consist of 2 parts, with total treatment duration of 20 weeks. Randomization in Part 1 will be stratified according the subject's previous anti-TNF exposure/response, CRP level at Screening, and oral corticosteroid use at visit Day −1.
After the first 10 weeks of treatment in Part 1, patients will be re-randomized for Part 2 as shown in the diagram below and will be stratified according to the subject's clinical response, previous anti-TNF exposure/response, and oral corticosteroid use at visit Day -1.
Fecal calprotectin is a protein belonging to the S100 family and occurring in large amounts in neutrophil granulocytes, where it accounts for 5% of total proteins and 60% of cytoplasm proteins. When inflammatory processes occur, calprotectin is released due to the degranulation of neutrophil granulocytes.
In bowel inflammation, calprotectin may be detected in the stool. The fecal levels provide direct information about the inflammation and is determined using a Calprest® enzyme immunoassay diagnostic kit (Eurospital Spa—Via Flavia 122-34147 Trieste—Italy; ref 9031).

O=C(Nc1nc2cccc(-c3ccc(CN4CCS(=O)(=O)CC4)cc3)n2n1)C1CC1 [Compound 1, cyclopropanecarboxylic acid {5-[4-(1,1-dioxo-thiomorpholin-4-ylmethyl)-phenyl]-[1,2,4]triazolo[1,5-a]pyridin-2-yl}-amide]
Fecal calprotectectin normalizing high to normal (<50 mg/kg), % subjects normalizing: 12%
Fecal calprotectectin normalizing high to normal (>250 mg/kg to ≤250 mg/kg), % subjects normalizing: 44%
Fecal calprotectin mean, % CFB: 73%
Fecal calprotectin mean, CFB: -86.7 mg/kg
Fecal calprotectin median, % CFB: −29%
Fecal calprotectin median, CFB: -75.5 mg/kg
